US20150065343A1, “Acrylamide compounds for combating invertebrate pests” (priority 2012, published 2015)

Legend:
Format in all cases: in vivo
[1] = system: Boll weevil (Anthonomus grandis); test: B.10 Boll weevil microtiter plate test on insect diet with eggs; conditions: 120 h, sprayed onto insect diet at 20 μl, egg and larval mortality after 5 days, read-out: mortality in comparison with untreated controls
Protocol: B.10 Boll weevil (Anthonomus grandis)
For evaluating control of boll weevil (Anthonomus grandis) the test unit consisted of 24-well-microtiter plates containing an insect diet and 20-30 A. grandis eggs.
The compounds were formulated using a solution containing 75% v/v water and 25% v/v DMSO. Different concentrations of formulated compounds were sprayed onto the insect diet at 20 μl, using a custom built micro atomizer, at two replications.
After application, microtiter plates were incubated at about 23±1° C. and about 50±5% relative humidity for 5 days. Egg and larval mortality was then visually assessed.

[2] = system: Southern armyworm (Spodoptera eridania); test: B.7 Southern armyworm spray test on lima bean plants; conditions: foliar, 96 h, sprayed lima bean foliage, armyworm larvae, 4 days after treatment, read-out: mortality in comparison with untreated controls
Protocol: B.7 Southern armyworm (Spodoptera eridania)
(§1) The active compounds were formulated in cyclohexanone as a 10,000 ppm solution supplied in tubes. The tubes were inserted into an automated electrostatic sprayer equipped with an atomizing nozzle and they served as stock solutions for which lower dilutions were made in 50% acetone:50% water (v/v). A nonionic surfactant (Kinetic®) was included in the solution at a volume of 0.01% (v/v).
Lima bean plants (variety Sieva) were grown 2 plants to a pot and selected for treatment at the 1st true leaf stage. Test solutions were sprayed onto the foliage by an automated electrostatic plant sprayer equipped with an atomizing spray nozzle. The plants were dried in the sprayer fume hood and then removed from the sprayer. Each pot was placed into perforated plastic bags with a zip closure. About 10 to 11 armyworm larvae were placed into the bag and the bags zipped closed. Test plants were maintained in a growth room at about 25° C. and about 20-40% relative humidity for 4 days, avoiding direct exposure to fluorescent light (24 hour photoperiod) to prevent trapping of heat inside the bags. Mortality and reduced feeding were assessed 4 days after treatment, compared to untreated control plants.

[3] = system: Vetch aphid (Megoura viciae); test: B.8 Vetch aphid test on broad bean leaf disks in 24-well plates; conditions: foliar, 120 h, sprayed onto leaf disks at 2.5 μl, adult aphids, 5 days, read-out: mortality in comparison with untreated controls
Protocol: B.8 Vetch aphid (Megoura viciae)
For evaluating control of vetch aphid (Megoura viciae) through contact or systemic means the test unit consisted of 24-well-microtiter plates containing broad bean leaf disks.
The compounds were formulated using a solution containing 75% v/v water and 25% v/v DMSO. Different concentrations of formulated compounds were sprayed onto the leaf disks at 2.5 μl, using a custom built micro atomizer, at two replications.
After application, the leaf disks were air-dried and 5-8 adult aphids placed on the leaf disks inside the microtiter plate wells. The aphids were then allowed to suck on the treated leaf disks and incubated at about 23±1° C. and about 50±5% relative humidity for 5 days. Aphid mortality and fecundity was then visually assessed.

[4] = system: Diamond back moth (Plutella xylostella); test: B.2 Diamond back moth leaf-dip test on Chinese cabbage; conditions: dipped Chinese cabbage leaves, mortality recorded 24, 72 and 120 hours after treatment, read-out: mortality in comparison with untreated controls
Protocol: B.2 Diamond back moth (Plutella xylostella)
Leaves of Chinese cabbage were dipped in test solution and air-dried. Treated leaves were placed in petri dished lined with moist filter paper. Mortality was recorded 24, 72, and 120 hours after treatment.

[5] = system: Green peach aphid (Myzus persicae); test: B.3 Green peach aphid systemic test, artificial diet in 96-well plates; conditions: 72 h, adult aphids, 3 days, read-out: mortality in comparison with untreated controls
Source text: B.3 Green peach aphid (Myzus persicae)
For evaluating control of green peach aphid (Myzus persicae) through systemic means the test unit consisted of 96-well-microtiter plates containing liquid artificial diet under an artificial membrane.
The compounds were formulated using a solution containing 75% v/v water and 25% v/v DMSO. Different concentrations of formulated compounds were pipetted into the aphid diet, using a custom built pipetter, at two replications.
After application, 5-8 adult aphids were placed on the artificial membrane inside the microtiter plate wells. The aphids were then allowed to suck on the treated aphid diet and incubated at about 23+1° C. and about 50+5% relative humidity for 3 days. Aphid mortality and fecundity was then visually assessed.

[6] = system: Silverleaf whitefly (bernisia argentifolii); test: B.6 Silverleaf whitefly spray test on cotton plants; conditions: Bemisia argentifolii, 72 h, sprayed cotton plants, whitefly adults, 3 days after treatment, read-out: mortality in comparison with untreated controls
Source text: B.6 Silverleaf whitefly (bernisia argentifolii)
as §1
Cotton plants at the cotyledon stage (one plant per pot) were sprayed by an automated electrostatic plant sprayer equipped with an atomizing spray nozzle. The plants were dried in the sprayer fume hood and then removed from the sprayer. Each pot was placed into a plastic cup and about 10 to 12 whitefly adults (approximately 3-5 days old) were introduced. The insects were collected using an aspirator and a nontoxic Tygon® tubing connected to a barrier pipette tip. The tip, containing the collected insects, was then gently inserted into the soil containing the treated plant, allowing insects to crawl out of the tip to reach the foliage for feeding. Cups were covered with a reusable screened lid. […] Mortality was assessed 3 days after treatment, compared to untreated control plants.

[7] = system: Orchid thrips (dichromothrips corbetti); test: B.5 Orchid thrips floral-immersion test; conditions: 96 h, adult thrips, after 4 days, read-out: mortality in comparison with untreated controls
Protocol: B.5 Orchid thrips (dichromothrips corbetti)
Dichromothaps corbetti adults used for bioassay were obtained from a colony maintained continuously under laboratory conditions. For testing purposes, the test compound was diluted to a concentration of 500 ppm (wt compound: vol diluent) in a 1:1 mixture of acetone:water (vol:vol), plus 0.01% vol/vol Kinetic® surfactant.
Thrips potency of each compound was evaluated by using a floral-immersion technique. Plastic petri dishes were used as test arenas. All petals of individual, intact orchid flowers were dipped into treatment solution and allowed to dry. Treated flowers were placed into individual petri dishes along with 10-15 adult thrips. The petri dishes were then covered with lids. All test arenas were held under continuous light and a temperature of about 28° C. for duration of the assay. After 4 days, the numbers of live thrips were counted on each flower, and along inner walls of each petri dish. The level of thrips mortality was extrapolated from pre-treatment thrips numbers.

[8] = system: Mediterranean fruitfly (Ceratitis capitata); test: B.4 Mediterranean fruitfly microtiter plate test on insect diet with eggs; conditions: 120 h, sprayed onto insect diet at 5 μl, egg and larval mortality after 5 days, read-out: mortality in comparison with untreated controls
Protocol: B.4 Mediterranean fruitfly (Ceratitis capitata)
For evaluating control of Mediterranean fruitfly (Ceratitis capitata) the test unit consisted of microtiter plates containing an insect diet and 50-80 C. capitate eggs.
The compounds were formulated using a solution containing 75% v/v water and 25% v/v DMSO. Different concentrations of formulated compounds were sprayed onto the insect diet at 5 μl, using a custom built micro atomizer, at two replications.
(§2) After application, microtiter plates were incubated at about 28±1° C. and about 80±5% relative humidity for 5 days. Egg and larval mortality was then visually assessed.

[9] = system: Tobacco budworm (Heliothis virescens); test: B.9 Tobacco budworm microtiter plate test on insect diet with eggs; conditions: 120 h, sprayed onto insect diet at 10 μl, egg and larval mortality after 5 days, read-out: mortality in comparison with untreated controls
Protocol: B.9 Tobacco budworm (Heliothis virescens) HELVI
For evaluating control of tobacco budworm (Heliothis virescens) the test unit consisted of 96-well-microtiter plates containing an insect diet and 15-25 H. virescens eggs.
The compounds were formulated using a solution containing 75% v/v water and 25% v/v DMSO. Different concentrations of formulated compounds were sprayed onto the insect diet at 10 μl, using a custom built micro atomizer, at two replications.
as §2

CNC(=O)N/N=C/c1sc(/C=C/C(=O)NC(c2cccc(C(F)(F)F)c2)C(F)(F)F)cc1C (centres unmarked) [Compound 1-1, (E)-3-[4-methyl-5-[(E)-(methylcarbamoylhydrazono)methyl]-2-thienyl]-N-[2,2,2-trifluoro-1-[3-(trifluoromethyl)phenyl]ethyl]prop-2-enamide]
≥ 75%: mortality at 2500 ppm [1] | mortality at 300 ppm [2] | mortality at 2500 ppm [3] | mortality at 500 ppm [4] | mortality at 2500 ppm [5] | mortality at 300 ppm [6] | mortality at 500 ppm [7] | mortality at 2500 ppm [8] | mortality at 2500 ppm [9]

Cc1cc(/C=C/C(=O)NC(c2cccc(C(F)(F)F)c2)C(F)(F)F)sc1C(=O)NC1CC1 (centres unmarked) [Compound 2-1, N-cyclopropyl-3-methyl-5-[(E)-3-oxo-3-[[2,2,2-trifluoro-1-[3-(trifluoromethyl)phenyl]-ethyl]amino]prop-1-enyl]thiophene-2-carboxamide]
≥ 75%: mortality at 2500 ppm [1] | mortality at 300 ppm [2] | mortality at 2500 ppm [3] | mortality at 500 ppm [4] | mortality at 2500 ppm [5] | mortality at 500 ppm [7] | mortality at 2500 ppm [8] | mortality at 2500 ppm [9]

CSCC(=O)NCc1sc(/C=C/C(=O)NC(c2cccc(C(F)(F)F)c2)C(F)(F)F)cc1C (centres unmarked) [Compound 3-6, (E)-3-[4-Methyl-5-[[(2-methylsulfanylacetyl)amino]methyl]-2-thienyl]-N-[2,2,2-trifluoro-1-[3-(trifluoromethyl)phenyl]ethyl]prop-2-enamide]
≥ 75%: mortality at 2500 ppm [1] | mortality at 2500 ppm [5] | mortality at 500 ppm [7]

Cc1sc(/C=C/C(=O)NC(c2cccc(C(F)(F)F)c2)C(F)(F)F)cc1C(=O)NC1CC1 (centres unmarked) [Compound 4-1, N-Cyclopropyl-2-methyl-5-[(E)-3-oxo-3-[[2,2,2-trifluoro-1-[3-(trifluoromethyl)phenyl]-ethyl]amino]prop-1-enyl]thiophene-3-carboxamide]
≥ 75%: mortality at 2500 ppm [1] | mortality at 300 ppm [2] | mortality at 2500 ppm [5] | mortality at 300 ppm [6] | mortality at 2500 ppm [8]

CCN(Cc1sc(/C=C/C(=O)NC(c2cccc(C(F)(F)F)c2)C(F)(F)F)cc1C)C(=O)CS(C)(=O)=O (centres unmarked) [Compound 3-1, (E)-3-[5-[[Ethyl-(2-methylsulfonylacetyl)amino]methyl]-4-methyl-2-thienyl]-N-[2,2,2-trifluoro-1-[3-(trifluoromethyl)phenyl]ethyl]prop-2-enamide]
≥ 75%: mortality at 2500 ppm [1] | mortality at 300 ppm [2] | mortality at 2500 ppm [5] | mortality at 500 ppm [7]
